{
  "source": "patent US11192869B2",
  "about": "“CFTR regulators and methods of use thereof” (THE REGENTS OF THE UNIVERSITY OF CALIFORNIA, priority 2015, dated 2021)",
  "type_in_all_cases": "in vivo, mouse",
  "key": {"[1]": {"assay": "7-day chronic administration toxicity study", "excerpt": "Chronic administration and toxicity studies."}, "[2]": {"assay": "Pharmacokinetics after ip or oral administration", "procedure": "Pharmacokinetics. All animal experiments were approved by UCSF Institutional Animal Care and Use Committee. Female CD1 mice were treated with 10 mg/kg CFTRact-J027 (saline containing 5% DMSO and 10% Kolliphor HS 15) either intraperitoneally (ip) or orally. Blood was collected at 15, 30, 60, 150, 240 and 360 min after treatment by orbital puncture and centrifuged at 5000 rpm for 15 min to separate plasma. Plasma samples (60 μL) were mixed with 300 μL acetonitrile and centrifuged at 13000 rpm for 20 min, and 90 μL of the supernatant was used for LC/MS. The solvent system consisted of a linear gradient from 5 to 95% acetonitrile over 16 min (0.2 ml/min flow). Mass spectra was acquired on a mass spectrometer (Waters 2695 and Micromass ZQ) using electrospray (+) ionization, mass ranging from 100 to 1500 Da, cone voltage 40 V. Calibration standards were prepared in plasma from untreated mice to which known amounts of CFTRact-J027 were added."}, "ocular surface": {"test_system": "ocular surface", "assay": "Ocular surface potential difference measurements", "settings": "wild-type mice, 1-10 μM", "procedure": "Ocular surface potential difference measurements. Open-circuit transepithelial PD were measured continuously in anesthetized mice in response to serial perfusions of different solutions over the ocular surface, as described (21). Mice were anesthetized with Avertin (2,2,2-tribromoethanol, 125 mg/kg intraperitoneal, Sigma-Aldrich, St. Louis, Mo., USA), and core temperature was maintained at 37° C. using a heating pad. Eyes were oriented with the cornea and conjunctiva facing upward and exposed by retracting the eyelid with cross-action forceps. Solutions were isosmolar (320±10 mOsM; compositions provided in ref. 21) and contained 10μ[…] □ indomethacin to prevent CFTR activation by prostaglandins. The ocular surface was perfused at 6 mL/min through plastic tubing using a multireservoir gravity pinch-valve system (ALA Scientific, Westbury, N.Y., USA) and variable-flow peristaltic pump (medium flow model; Fisher Scientific, Fair Lawn, N.J., USA). A probe catheter was fixed 1 mm above the cornea using a micropositioner and a suction cannula was positioned 3 mm from the orbit. The measuring electrode was in contact to the perfusion catheter and connected to a high-impedance voltmeter (IsoMilivolt Meter; WPI). The reference electrode was grounded via a winged 21-gauge needle filled with isosmolar saline, and inserted subcutaneously in the abdomen. Measuring and reference electrodes consisted of Ag/AgCl with 3 M KCl agar bridges.\nOcular surface potential difference measurements. Open-circuit transepithelial PD were measured continuously in anesthetized mice in response to serial perfusions of different solutions over the ocular surface, as described (21). Mice were anesthetized with Avertin (2,2,2-tribromoethanol, 125 mg/kg intraperitoneal, Sigma-Aldrich, St. Louis, Mo., USA), and core temperature was maintained at 37° C. using a heating pad. Eyes were oriented with the cornea and conjunctiva facing upward and exposed by retracting the eyelid with cross-action forceps. […]"}},
  "note": "Entries after “also recorded” stand apart in the source; their conditions may differ.",
  "data": [
    {"compound": "Nc1ccc([N+](=O)[O-])cc1-c1nc2ccccc2n(Cc2ccccc2)c1=O", "note": "[CFTRact-J027, 3-(2-amino-5-nitrophenyl)-1-benzylquinoxalin-2(1H)-one]", "values": [
      {"measurement": "in vivo toxicity after chronic administration", "setting": "[1]; 7-day study, 10 mg/kg oral, 10 mg/kg", "result": "did not show significant; also recorded: without apparent toxicity"},
      {"measurement": "major serum chemistry and blood parameters", "setting": "[1]; 7-day treated mice", "result": "did not affect"},
      {"measurement": "elimination half-life of serum concentration", "setting": "[2]; 10 mg/kg ip", "result": "~16", "unit": "min"},
      {"measurement": "bioavailability (in words)", "setting": "[2]; 10 mg/kg oral", "result": "very low bioavailability; also recorded: minimal bioavailability"},
      {"measurement": "blood levels relative to EC50 for CFTR activation", "setting": "[2]; 10 mg/kg oral", "result": "well below the EC50"},
      {"measurement": "change in ocular surface PD (in words)", "setting": "ocular surface", "result": "large hyperpolarizations"}
    ]}
  ]
}
